These results are taken from patent US7947689B2, “Substituted pyrazolo[1,5-a]pyrimidines as metabotropic glutamate receptor modulators” (Merz Pharma GmbH & Co. KGaA, priority 2006, dated 2011).

Series [1] has as its target T1, metabotropic glutamate receptor (mGluR5) (Homo sapiens, UniProt P41594). Description: Cytosolic calcium studies with stably transfected cells (FLIPR, CHO-K1). Type of series: cell-based. On the set-up: expressed in transfected cells; host or cells: CHO-K1 cells (IPTG-inducible expression). The conditions noted are these: CHO-K1 cells expressing human mGluR5; agonist L-quisqualic acid at 80% of maximal signal; negative modulation; read-out: mGluR5_FLIPR_h_CHO_NAM— IC50. The procedure:
Cytosolic Calcium Studies with Stably Transfected Cells:
Chinese hamster ovary cells (CHO-K1 cells), stably transfected for inducible expression of a human metabotropic glutamate receptor mGluR5, are seeded into black clear bottom 96 well plates at a density of 35.000 cells per well. The standard growth medium used (Dulbecco's modified Eagle Medium, DMEM plus L-proline) contains the appropriate inducer isopropyl-β-D-thiogalactopyranosid (IPTG) to achieve optimal receptor expression. One day after seeding the growth medium is exchanged for reconstituted Ca-Kit (Molecular Devices, USA) and incubated for one hour. Ca-Kit is reconstituted in an assay buffer containing 20 mM HEPES pH 7.4, glutamic-pyruvate transaminase, pyridoxal phosphate and sodium pyruvate in Hank's balanced salt solution (HBBS). Agonistic compounds to the receptor elicit increases in cytosolic calcium which can be measured as increases in fluorescence signals by use of a fluorescence imaging plate reader (Molecular Devices).
(§1) The fluorescence signal increase after addition of agonist reflects the increase of cytosolic calcium. Inconsistencies in the amount of cells per well are normalised by using the spatial uniformity correction of the FLIPR software. The mean of replicated temporal data (n=3-5) is calculated and used for graphical representation. For the evaluation of the pharmacology, the calcium changes in response to different concentrations of agonist or antagonist are determined using a maximum minus minimum (MaxMin) calculation.
(§2) All responses (RFU-values) are determined as percentage of control (=maximum response). EC50 and IC50 are calculated according the logistic equation using GraFit 5.0 (Erithacus Software, GB) or Prism 4.0 (GraphPad Software, USA).

The next series deals with T2, mGluR5 receptors (Rattus norvegicus, UniProt P31424).
T2 construct: endogenous in cells; host or cells: primary astrocytes from neocortex of Sprague-Dawley rat pups (2-4 d old)
T2 sequence (P31424 21-1203): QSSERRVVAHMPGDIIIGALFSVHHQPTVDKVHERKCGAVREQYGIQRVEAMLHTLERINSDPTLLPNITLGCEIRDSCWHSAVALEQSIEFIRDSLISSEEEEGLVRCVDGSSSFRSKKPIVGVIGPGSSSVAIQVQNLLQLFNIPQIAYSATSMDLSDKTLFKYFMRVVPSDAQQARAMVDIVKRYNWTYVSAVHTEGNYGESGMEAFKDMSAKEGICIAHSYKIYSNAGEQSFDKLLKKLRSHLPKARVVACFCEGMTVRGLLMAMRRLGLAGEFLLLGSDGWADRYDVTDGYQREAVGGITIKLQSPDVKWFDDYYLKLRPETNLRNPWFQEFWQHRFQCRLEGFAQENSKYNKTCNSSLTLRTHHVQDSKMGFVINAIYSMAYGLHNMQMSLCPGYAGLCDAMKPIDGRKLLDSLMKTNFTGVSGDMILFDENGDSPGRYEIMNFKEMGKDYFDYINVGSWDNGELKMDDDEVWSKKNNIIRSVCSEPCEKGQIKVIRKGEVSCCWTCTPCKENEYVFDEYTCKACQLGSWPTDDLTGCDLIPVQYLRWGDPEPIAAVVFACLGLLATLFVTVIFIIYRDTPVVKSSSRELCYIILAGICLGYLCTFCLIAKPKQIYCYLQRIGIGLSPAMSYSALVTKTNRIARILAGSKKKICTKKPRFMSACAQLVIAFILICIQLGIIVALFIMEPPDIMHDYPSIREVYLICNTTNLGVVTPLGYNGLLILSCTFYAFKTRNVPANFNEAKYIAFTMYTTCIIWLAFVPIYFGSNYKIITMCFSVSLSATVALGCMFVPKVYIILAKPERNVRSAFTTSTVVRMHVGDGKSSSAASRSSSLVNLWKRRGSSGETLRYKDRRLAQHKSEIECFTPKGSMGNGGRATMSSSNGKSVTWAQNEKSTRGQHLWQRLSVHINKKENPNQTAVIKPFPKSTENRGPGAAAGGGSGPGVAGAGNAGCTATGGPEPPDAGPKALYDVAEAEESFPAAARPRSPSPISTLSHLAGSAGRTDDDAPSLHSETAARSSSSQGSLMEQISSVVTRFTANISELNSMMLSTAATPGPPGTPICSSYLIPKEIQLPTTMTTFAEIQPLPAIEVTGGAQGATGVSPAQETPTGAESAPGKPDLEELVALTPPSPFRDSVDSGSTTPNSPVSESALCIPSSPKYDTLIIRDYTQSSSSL
Description: Cytosolic calcium studies with astrocytes (astrocyte culture test, FLIPR). It is filed as cell-based. The conditions noted are these: rat primary astrocytes; L-quisqualate 100 nM; read-out: mGluR5_FLIPR_r_rpA— IC50. Here is the method:
Primary astrocyte cultures are prepared from cortices of newborn rats as described by Booher and Sensenbrenner (1972, Neurobiology 2(3):97-105). Briefly, Sprague-Dawley rat pups (2-4 d old) are decapitated and neocortices are dissected, disintegrated with a nylon filter (pore size 80 μm) and carefully triturated. The cell suspension is plated on poly-D-lysine pre-coated flasks (Costar, Netherlands) and cultivated in Dulbecco's Modified Eagle's Medium (DMEM, Invitrogen, Germany) supplemented with 10% foetal calf serum (FCS, Sigma, Germany), 4 mM glutamine and 50 μg/ml gentamycin (both Biochrom, Germany) at 37° C. in a humidified atmosphere of 5% CO2/95% air for 7 d with exchanging the medium at day 2 and 6.
After 7 days in vitro (DIV), cells are shaken overnight at 250 rpm to remove oligodendrocytes and microglia. The next day, astrocytes are rinsed twice with CMF-PBS (calcium- and magnesium-free phosphate buffered saline, Biochrom, Germany), trypsinized and subplated on poly-D-lysine pre-coated 96-well plates (Greiner, Germany) at a density of 40,000 cells/well. 24 h after establishing the secondary culture the astrocytes are rinsed with PBS^++ (phosphate buffered saline, Biochrom, Germany) and fed with astrocyte-defined medium (ADM) consisting of DMEM containing 1×G5-supplement (Invitrogen, Germany), 0.5 μg/ml heparan sulfate, and 1.5 μg/ml fibronectin (both Sigma, Germany) (Miller et al., (1993) Brain Res. 618(1):175-8). 3 d later the medium is exchanged and the cells incubated for another 2-3 d, so that at the time of experiments astrocytes are 14-15 DIV.
Cytosolic Calcium Studies with Astrocytes:
The increase of cytosolic calcium after stimulation with the mGluR5 agonist L-quisqualate is measured using a fluorometric imaging plate reader (FLIPR) and the Ca-Kit (both Molecular Devices). Prior to addition of agonist or antagonist the medium is aspirated and cells are loaded for 2 h at RT with 150 μl of loading buffer consisting of Ca-sensitive dye reconstituted in sodium chloride (123 mM), potassium chloride (5.4 mM), magnesium chloride (0.8 mM), calcium chloride (1.8 mM), D-glucose (15 mM), and HEPES (20 mM), pH 7.3. Subsequently, plates are transferred to FLIPR to detect calcium increase with the addition of L-quisqualate (100 nM) measured as relative fluorescence units (RFU). If antagonists are tested, these compounds are pre-incubated for 10 minutes at RT before addition of the respective agonist.
as §1, §2

Series [2] concerns the target T3, transmembrane allosteric modulatory sites of mGluR5 receptors (Rattus norvegicus, UniProt P31424).
T3 construct: from tissue; host or cells: cortex of male Sprague-Dawley rats, membrane preparation
Put plainly: [3H]-MPEP binding assay in rat cortical membranes. The conditions noted are these: displacement of radioligand, read-out: mGluR5_M_MPEP_r_CTX IC50. The procedure:
Binding Assays for the Characterization of mGluR5 Antagonists
Preparation of Rat Cortical Membranes:
Male Sprague-Dawley rats (200-250 g) are decapitated and their brains are removed rapidly. The cortex is dissected and homogenized in 20 volumes of ice-cold 0.32 M sucrose using a glass-Teflon homogenizer. The homogenate is centrifuged at 1000×g for 10 minutes. The pellet is discarded and the supernatant centrifuged at 20,000×g for 20 minutes. The resulting pellet is re-suspended in 20 volumes of distilled water and centrifuged for 20 minutes at 8000×g. Then the supernatant and the buffy coat are centrifuged at 48,000×g for 20 minutes in the presence of 50 mM Tris-HCl, pH 8.0. The pellet is then re-suspended and centrifuged two to three more times at 48,000×g for 20 minutes in the presence of 50 mM Tris-HCl, pH 8.0. All centrifugation steps are carried out at 4° C. After resuspension in 5 volumes of 50 mM Tris-HCl, pH 8.0 the membrane suspension is frozen rapidly at −80° C.
On the day of assay the membranes are thawed and washed four times by resuspension in 50 mM Tris-HCl, pH 8.0 and centrifugation at 48,000×g for 20 minutes and finally re-suspended in 50 mM Tris-HCl, pH 7.4. The amount of protein in the final membrane preparation (500-700 μg/ml) is determined according to the method of Lowry (Lowry O. H. et al. 1951. J. Biol. Chem. 193, 256-275).
The incubations are continued at room temperature for 60 minutes (equilibrium is achieved under the conditions used). […] Incubations are terminated using a Millipore filter system. The samples are rinsed twice with 4 ml of ice-cold assay buffer over glass fibre filters (Schleicher & Schuell, Germany) under a constant vacuum. Following separation and rinse, the filters are placed into scintillation liquid (5 ml Ultima Gold, Perkin Elmer, Germany) and radioactivity retained on the filters is determined with a conventional liquid scintillation counter (Can berra Packard, Germany).

Series [3] has as its target T1, metabotropic glutamate receptor (mGluR5). Description: Activity as mGluR5 modulator (test not specified). The conditions noted are these: for activity as metabotropic glutamate receptor (mGluR5) modulator: prior-art compounds.

T3 sequence (P31424 21-1203): as above
T1 sequence (P41594 21-1212): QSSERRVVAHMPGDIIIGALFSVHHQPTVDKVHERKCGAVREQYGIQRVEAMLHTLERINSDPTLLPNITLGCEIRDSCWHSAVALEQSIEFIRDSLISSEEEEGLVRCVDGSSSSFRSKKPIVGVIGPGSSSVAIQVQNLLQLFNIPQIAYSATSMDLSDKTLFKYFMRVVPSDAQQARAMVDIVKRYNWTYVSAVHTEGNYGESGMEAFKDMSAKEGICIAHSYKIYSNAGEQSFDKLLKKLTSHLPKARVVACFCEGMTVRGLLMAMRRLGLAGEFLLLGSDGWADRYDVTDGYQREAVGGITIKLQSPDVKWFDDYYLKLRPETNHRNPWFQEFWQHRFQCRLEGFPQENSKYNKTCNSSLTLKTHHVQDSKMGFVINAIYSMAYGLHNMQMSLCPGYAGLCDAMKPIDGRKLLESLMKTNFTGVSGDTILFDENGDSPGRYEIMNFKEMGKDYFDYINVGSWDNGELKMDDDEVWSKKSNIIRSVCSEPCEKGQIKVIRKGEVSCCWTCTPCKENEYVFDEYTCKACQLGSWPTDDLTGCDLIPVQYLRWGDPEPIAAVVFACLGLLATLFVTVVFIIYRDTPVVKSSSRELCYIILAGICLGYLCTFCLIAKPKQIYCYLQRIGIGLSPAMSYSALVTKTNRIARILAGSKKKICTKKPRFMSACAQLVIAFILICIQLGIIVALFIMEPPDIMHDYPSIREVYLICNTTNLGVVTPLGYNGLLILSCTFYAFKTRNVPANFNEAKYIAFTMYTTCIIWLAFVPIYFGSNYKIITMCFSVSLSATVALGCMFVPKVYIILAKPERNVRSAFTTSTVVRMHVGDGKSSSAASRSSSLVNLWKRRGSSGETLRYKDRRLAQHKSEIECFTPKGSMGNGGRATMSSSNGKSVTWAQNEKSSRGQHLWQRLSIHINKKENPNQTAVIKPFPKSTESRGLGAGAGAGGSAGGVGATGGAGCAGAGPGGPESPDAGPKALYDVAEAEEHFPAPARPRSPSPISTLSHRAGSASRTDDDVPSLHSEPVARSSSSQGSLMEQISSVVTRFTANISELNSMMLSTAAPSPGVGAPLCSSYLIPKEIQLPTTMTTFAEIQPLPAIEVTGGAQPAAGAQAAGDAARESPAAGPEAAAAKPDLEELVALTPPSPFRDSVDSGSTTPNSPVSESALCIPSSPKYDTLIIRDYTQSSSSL

Broadly, the IC50 is the point on the concentration scale where inhibition reaches its midpoint. For `CC1c2ccsc2CCN1C(=O)c1cc2ncc(Br)cn2n1` (stereo not shown) [Example 1, 6-Bromo-2-[(4-methyl-6,7-dihydrothieno[3,2-c]pyridin-5(4H)-yl)carbonyl]pyrazolo[1,5-a]pyrimidine], the concentration for half-maximal inhibition (IC50) is 80.7 nM in series [1], 23 nM at mGluR5 receptors and 80 nM in series [2].

On to `CC1c2ccsc2CCN1C(=O)c1cc2ncc(Cl)cn2n1` (stereo not shown) [Example 2, (6-Chloro-pyrazolo[1,5-a]pyrimidin-2-yl)-(4-methyl-6,7-dihydro-4H-thieno[3,2-c]pyridin-5-yl)-methanone], for which the IC50 was found to be 44 nM in series [1], 24 nM on mGluR5 receptors and 55 nM in series [2].

As to `CCC1c2ccsc2CCN1C(=O)c1cc2ncc(Br)cn2n1` (stereo not shown) [Example 9, (6-Bromo-pyrazolo[1,5-a]pyrimidin-2-yl)-(4-ethyl-6,7-dihydro-4H-thieno[3,2-c]pyridin-5-yl)-methanone], the 50% inhibitory concentration (IC50) in series [1] stood at 63.6 nM; on mGluR5 receptors, 21 nM; in series [2], 117 nM.

On to `CCC1c2ccsc2CCN1C(=O)c1cc2ncc(Cl)cn2n1` (stereo not shown) [Example 10, (6-Chloro-pyrazolo[1,5-a]pyrimidin-2-yl)-(4-ethyl-6,7-dihydro-4H-thieno[3,2-c]pyridin-5-yl)-methanone], for which the IC50 stood at 82 nM in series [1], 21 nM at mGluR5 receptors and 150 nM in series [2].

For `Cc1cc2c(s1)CCN(C(=O)c1cc3ncc(Br)cn3n1)C2C` (stereo not shown) [Example 15, (6-Bromo-pyrazolo[1,5-a]pyrimidin-2-yl)-(2,4-dimethyl-6,7-dihydro-4H-thieno[3,2-c]pyridin-5-yl)-methanone], the IC50 in series [1] came to 104 nM; on mGluR5 receptors, 22.8 nM; in series [2], 12 nM.

For `Cc1cc2c(s1)CCN(C(=O)c1cc3ncc(Cl)cn3n1)C2C` (stereo not shown) [Example 16, (6-Chloro-pyrazolo[1,5-a]pyrimidin-2-yl)-(2,4-dimethyl-6,7-dihydro-4H-thieno[3,2-c]pyridin-5-yl)-methanone], the IC50 in series [1] turned out to be 92.9 nM; at mGluR5 receptors it was 21 nM; in series [2] it was 20 nM.

Turning to `CC1c2ccoc2CCN1C(=O)c1cc2ncc(Br)cn2n1` (stereo not shown) [Example 28, 6-Bromo-2-[(4-methyl-6,7-dihydrofuro[3,2-c]pyridin-5(4H)-yl)carbonyl]pyrazolo[1,5-a]pyrimidine], the IC50 was found to be 107 nM in series [1], 80.5 nM on mGluR5 receptors and 214 nM in series [2].

In the case of `CC1c2ccoc2CCN1C(=O)c1cc2ncc(Cl)cn2n1` (stereo not shown) [Example 29, 6-Chloro-2-[(4-methyl-6,7-dihydrofuro[3,2-c]pyridin-5(4H)-yl)carbonyl]pyrazolo[1,5-a]pyrimidine], the IC50 came out at 206 nM in series [1], 64 nM on mGluR5 receptors and 110 nM in series [2].

The melting point is the temperature, or range, at which the solid turns liquid. `C[C@H]1c2ccsc2CCN1C(=O)c1cc2ncc(Br)cn2n1` [Example 41, (6-Bromo-pyrazolo[1,5-a]pyrimidin-2-yl)-(4-methyl-6,7-dihydro-4H-thieno[3,2-c]pyridin-5-yl)-methanone] returned a melting point of 136 to 137 °C. Besides, in series [1], the IC50 came out at 4420 nM.

`C[C@@H]1c2ccsc2CCN1C(=O)c1cc2ncc(Br)cn2n1` [Example 42, (6-Bromo-pyrazolo[1,5-a]pyrimidin-2-yl)-(4-methyl-6,7-dihydro-4H-thieno[3,2-c]pyridin-5-yl)-methanone] yielded a melting point of 142 to 144 °C. In series [1], the IC50 amounted to 23.4 nM. Besides, the IC50 at mGluR5 receptors worked out at 20 nM. For the same compound, the IC50 in series [2] was 10 nM.

For the compound `Cc1cc2c(o1)CCN(C(=O)c1cc3ncc(Br)cn3n1)C2C` (stereo not shown) [Example 44, (6-Bromo-pyrazolo[1,5-a]pyrimidin-2-yl)-(2,4-dimethyl-6,7-dihydro-4H-furo[3,2-c]pyridin-5-yl)-methanone], the IC50 in series [1] amounted to 147 nM; at mGluR5 receptors, 36 nM; in series [2], 17 nM.

Take `O=C(c1cc2ncc(Br)cn2n1)N1CCCCC1` [Example B308, (6-Bromopyrazolo[1,5-a]pyrimidin-2-yl)-piperidin-1-yl-methanone]: the “activity as metabotropic glutamate receptor (mGluR5) modulator” value (“activity” below) in series [3] was “no particular activity”.

In the case of `O=C(c1cc2ncc(Br)cn2n1)N1CCOCC1` [Example B310, (6-Bromopyrazolo[1,5-a]pyrimidin-2-yl)-morpholin-4-yl-methanone], the “activity” value in series [3] is recorded as “no particular activity”.

Turning to `O=C(c1cc2ncc(Br)cn2n1)N1CCc2ccccc2C1` [M, (6-Bromo-pyrazolo[1,5-a]pyrimidin-2-yl)-(1,2,3,4-tetrahydro-isoquinolin-2-yl)-methanon], the selectivity entry in series [3] (prior-art compound) was “not selective”. Besides, the “activity” value in series [3] is “only a limited activity”.
